{"source": "paper PMC3907537", "about": "“Evaluation of the Endothelin Receptor Antagonists Ambrisentan, Bosentan, Macitentan, and Sitaxsentan as Hepatobiliary Transporter Inhibitors and Substrates in Sandwich-Cultured Human Hepatocytes” (PLoS ONE, 2014)", "format_in_all_cases": "cell-based", "key": {"Pgp": {"target": "T1, Pgp (Homo sapiens, UniProt P08183)", "T1 construct": "host or cells: MDCKII", "T1 sequence (P08183 whole entry)": "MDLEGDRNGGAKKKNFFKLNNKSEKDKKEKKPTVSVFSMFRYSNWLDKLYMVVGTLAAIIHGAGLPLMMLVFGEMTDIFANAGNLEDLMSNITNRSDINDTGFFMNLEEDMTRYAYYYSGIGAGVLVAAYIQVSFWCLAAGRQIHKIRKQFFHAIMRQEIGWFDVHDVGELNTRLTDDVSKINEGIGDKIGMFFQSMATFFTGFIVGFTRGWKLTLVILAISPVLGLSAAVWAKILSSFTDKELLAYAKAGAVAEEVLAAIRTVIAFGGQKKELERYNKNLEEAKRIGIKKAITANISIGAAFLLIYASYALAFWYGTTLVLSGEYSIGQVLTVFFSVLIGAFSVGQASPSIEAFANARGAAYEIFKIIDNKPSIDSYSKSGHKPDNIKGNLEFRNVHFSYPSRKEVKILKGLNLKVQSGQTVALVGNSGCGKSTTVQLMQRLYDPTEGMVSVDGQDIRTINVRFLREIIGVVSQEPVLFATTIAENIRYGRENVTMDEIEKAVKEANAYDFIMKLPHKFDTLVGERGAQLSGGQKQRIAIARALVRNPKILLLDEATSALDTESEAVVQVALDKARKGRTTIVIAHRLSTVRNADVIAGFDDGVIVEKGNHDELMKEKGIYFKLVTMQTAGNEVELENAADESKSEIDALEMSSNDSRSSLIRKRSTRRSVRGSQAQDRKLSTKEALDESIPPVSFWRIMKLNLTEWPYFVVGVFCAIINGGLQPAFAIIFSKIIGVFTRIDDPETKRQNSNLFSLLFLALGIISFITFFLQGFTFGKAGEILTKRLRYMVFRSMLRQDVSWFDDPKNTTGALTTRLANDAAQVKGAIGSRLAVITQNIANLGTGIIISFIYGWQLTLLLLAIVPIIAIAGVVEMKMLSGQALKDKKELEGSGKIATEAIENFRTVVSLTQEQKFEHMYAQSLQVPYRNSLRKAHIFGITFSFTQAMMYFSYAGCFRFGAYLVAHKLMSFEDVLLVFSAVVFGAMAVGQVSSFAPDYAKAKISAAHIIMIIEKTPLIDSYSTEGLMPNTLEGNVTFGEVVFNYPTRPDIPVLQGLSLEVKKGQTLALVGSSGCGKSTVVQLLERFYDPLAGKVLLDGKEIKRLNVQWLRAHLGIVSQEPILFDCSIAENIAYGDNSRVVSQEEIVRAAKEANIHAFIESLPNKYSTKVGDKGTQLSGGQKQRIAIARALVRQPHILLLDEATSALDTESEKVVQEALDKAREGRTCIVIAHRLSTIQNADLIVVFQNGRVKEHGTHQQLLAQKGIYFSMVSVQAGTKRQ", "assay": "Pgp inhibition, Calcein AM in MDCKII cells", "settings": "mean ± SD of 3 independent studies in duplicate, tested 0.14–100 µM", "source_text": "(§1) Chinese Hamster Ovary (CHO) cells were obtained from Professor B. Stieger’s laboratory at University of Zurich, Zurich, Switzerland. Madin-Darby Canine Kidney strain II (MDCKII) cells were obtained from Nederlands Kanker Instituut (NKI), Amsterdam, Netherlands. NTCP-CHO cells, BSEP and MRP2 membrane vesicles were developed and validated at Solvo Biotechnology, Budaors, Hungary.\nMDCKII cells were maintained in DMEM with sodium pyruvate, Glutmax, 1% Penicillin/Streptomycin and 10% FBS in an incubator set at 37°C, 90% humidity and 5% CO2. MDCKII cells were seeded in 96-well black cell culture plates with clear bottoms at a density of 5×10^4 cells/well for Pgp and 2×10^4 cells/well for BCRP and grown to confluence. For the Pgp assay, test compounds were serially diluted in DMSO and then added into in cell culture medium (without FBS) containing 10 µM Calcein AM and incubated for 1 h. Following the removal of media containing Calcein AM and test compound, cells were washed five times with […] phosphate buffered saline containing magnesium and calcium (PBS). Wells were analyzed for Calcein AM fluorescence at an excitation of 494 nm and an emission of 517 nm. For the BCRP assay, test compounds were serially diluted DMSO and then spiked in cell culture medium (without FBS) containing 1 µM pheophorbide a (PhA) and incubated for 18 hours with MDCKII-ABCG2 cells. Following the removal of media containing PhA and test compound, cells were then washed five times with PBS. Wells were analyzed for PhA fluorescence at an excitation of 415 nm and an emission of 675 nm.\nAll assays were performed in duplicate. IC50 was defined as the test article concentration needed to inhibit the maximal transporter specific accumulation by 50%. IC50 values were calculated using non-linear fitting of % inhibition versus concentration to a sigmoidal curve with a variable Hill Coefficient using GraphPad Prism 5 (GraphPad Software Inc., San Diego, CA)."}, "NTCP": {"target": "T2, NTCP (Homo sapiens, UniProt Q14973)", "T2 construct": "host or cells: CHO", "T2 sequence (Q14973 1-349)": "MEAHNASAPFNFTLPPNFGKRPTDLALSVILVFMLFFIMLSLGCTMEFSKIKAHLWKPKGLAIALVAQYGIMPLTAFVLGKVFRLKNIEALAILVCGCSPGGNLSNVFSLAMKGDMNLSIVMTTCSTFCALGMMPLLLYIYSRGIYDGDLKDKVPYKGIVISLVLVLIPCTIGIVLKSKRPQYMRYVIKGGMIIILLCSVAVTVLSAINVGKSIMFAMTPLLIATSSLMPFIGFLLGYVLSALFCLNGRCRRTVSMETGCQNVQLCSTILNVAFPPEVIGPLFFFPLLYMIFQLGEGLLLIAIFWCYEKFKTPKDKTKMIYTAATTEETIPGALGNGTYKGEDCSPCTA", "assay": "NTCP inhibition, 3H taurocholate uptake in transfected CHO cells", "settings": "mean ± SD of 3 independent studies in duplicate, tested 0.14–100 µM", "source_text": "as §1\n(§2) CHO cells, either wild type or transfected with the genes encoding human NTCP, OATP1B1 and OATP1B3, were maintained in Dulbecco’s Modification of Eagle’s Medium (DMEM) containing 1,000 mg/L D-glucose, L-glutamine, 25 mM HEPES buffer, 110 mg/L sodium pyruvate, 1% Penicillin/Streptomycin, 10% fetal bovine serum (FBS), 0.05 mg/mL L proline and 0.5 mg/mL of geneticin G-418. Cells were maintained in incubators set at 37°C, 90% humidity and 5% CO2. OATP1B1 and OATP1B3 over-expressing cells were seeded in BioCoat Poly-D-Lysine coated 96-well black cell culture plates with clear bottoms at a density of 1×10^5 cells/well. Sodium butyrate (10 mM) was added to the OATP1B1 and OATP1B3 cells once seeded to increase the protein expression level and the cells were grown to confluence overnight. The assay buffer contained 142 mM NaCl, 5 mM KCl, 1 mM KH2PO4, 1.2 mM MgSO4, 1.5 mM CaCl2, 5 mM Glucose and 12.5 mM HEPES (pH 7.4). After removal of the media and before adding test compounds, the cells were washed twice with 37°C assay buffer followed by a 0.5 h pre-incubation with assay buffer. […] Wells were analyzed for Fluo 3 fluorescence at an excitation of 485 nm and emission of 530 nm. Inhibition of NTCP was studied using similar conditions to those described for OATP1B1 and OATP1B3 except that inhibition of the uptake ^3H taurocholate into transfected CHO cells was monitored using radioactive scintillation counting.\n(§3) All assays were performed in duplicate. […] IC50 values were calculated using non-linear fitting of % inhibition versus concentration to a sigmoidal curve with a variable Hill Coefficient using GraphPad Prism 5 (GraphPad Software Inc., San Diego, CA)."}, "OATP1B3": {"target": "T3, OATP1B3 (Homo sapiens, UniProt Q9NPD5)", "T3 construct": "host or cells: CHO", "T3 sequence (Q9NPD5 1-702)": "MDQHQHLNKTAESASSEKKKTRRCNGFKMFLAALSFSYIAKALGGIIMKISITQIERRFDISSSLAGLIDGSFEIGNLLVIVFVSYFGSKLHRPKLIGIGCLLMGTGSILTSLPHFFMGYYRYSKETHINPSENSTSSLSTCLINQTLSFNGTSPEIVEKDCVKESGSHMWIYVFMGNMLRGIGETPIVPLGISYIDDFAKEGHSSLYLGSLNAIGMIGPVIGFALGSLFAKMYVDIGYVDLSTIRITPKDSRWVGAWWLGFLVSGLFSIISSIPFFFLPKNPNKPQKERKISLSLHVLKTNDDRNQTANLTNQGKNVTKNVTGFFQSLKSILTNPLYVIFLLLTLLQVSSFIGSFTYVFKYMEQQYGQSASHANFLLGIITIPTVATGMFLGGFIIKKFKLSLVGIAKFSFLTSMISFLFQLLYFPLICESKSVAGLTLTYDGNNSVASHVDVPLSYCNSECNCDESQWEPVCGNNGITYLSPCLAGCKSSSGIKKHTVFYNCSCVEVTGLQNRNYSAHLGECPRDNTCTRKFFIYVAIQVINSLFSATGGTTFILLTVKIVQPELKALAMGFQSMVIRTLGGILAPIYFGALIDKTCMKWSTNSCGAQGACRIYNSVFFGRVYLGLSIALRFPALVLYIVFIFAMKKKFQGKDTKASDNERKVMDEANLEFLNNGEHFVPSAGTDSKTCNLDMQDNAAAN", "assay": "OATP1B3 inhibition, Fluo 3 uptake in transfected CHO cells", "source_text": "as §1, §2, §3"}, "[1]": {"settings": "CHO cells, Fluo 3, mean ± SD of 3 independent studies in duplicate, tested 0.14–100 µM, read-out: OATP1B3 IC50"}}, "note": "Values joined by “and” are separate entries in the source; they are usually repeats but may differ in a detail not shown here. Identical values can stand only once. Like-named read-outs stand apart in the source and are kept apart here."}
{"smiles": "CCCNS(=O)(=O)Nc1ncnc(OCCOc2ncc(Br)cn2)c1-c1ccc(Br)cc1", "note": "[macitentan]", "values": [{"measurement": "IC50", "setting": "Pgp", "value": "64 ± 15", "unit": "µM"}, {"measurement": "IC50", "setting": "NTCP", "value": "10 µM and 9.8 µM"}, {"measurement": "IC50", "setting": "OATP1B3; [1]", "value": "2.1 ± 0.3", "unit": "µM"}]}
{"smiles": "COC(c1ccccc1)(c1ccccc1)[C@H](Oc1nc(C)cc(C)n1)C(=O)O", "note": "[ambrisentan]", "values": [{"measurement": "IC50", "setting": "Pgp", "value": "> 100", "unit": "µM"}, {"measurement": "IC50", "setting": "NTCP", "value": "> 100", "unit": "µM"}, {"measurement": "IC50", "setting": "OATP1B3", "value": "44.6 ± 23.8", "unit": "µM"}]}
{"smiles": "COc1ccccc1Oc1c(NS(=O)(=O)c2ccc(C(C)(C)C)cc2)nc(-c2ncccn2)nc1OCCO", "note": "[bosentan]", "values": [{"measurement": "IC50", "setting": "Pgp", "value": "> 100", "unit": "µM"}, {"measurement": "IC50", "setting": "NTCP", "value": "36 µM and 35.6 µM"}, {"measurement": "IC50", "setting": "OATP1B3; [1]", "value": "5.2 ± 2.1", "unit": "µM"}]}
